Assay [1] has as its system PC-12. Description: Cytoprotective activity against H2O2-induced oxidative damage in rat PC12 cells assessed as early apoptotic cells at 10 uM preincubated for 24 hrs followed by H2O2 addition measured after 24 hrs by annexin V-FITC/propidium iodide staining-based flow cytometric method (reference value: 0.558%). The format is functional.
Assay [2] deals with PC-12. The assay is described as follows: Cytoprotective activity against H2O2-induced oxidative damage in rat PC12 cells assessed as viable cells at 10 uM preincubated for 24 hrs followed by H2O2 addition measured after 24 hrs by annexin V-FITC/propidium iodide staining-based flow cytometric method (reference value: 85.2%). It is filed as functional. To be noted: read-out: Activity. (In general: A flow cytometer gives signals particle by particle.)

In assay [3] the test system is PC-12. The assay is described as follows: Cytoprotective activity against H2O2-induced oxidative damage in rat PC12 cells assessed as necrotic cells at 10 uM preincubated for 24 hrs followed by H2O2 addition measured after 24 hrs by annexin V-FITC/propidium iodide staining-based flow cytometric method (reference value: 3.47%). It is filed as functional.
The subject of assay [4] is PC-12. The assay is described as follows: Cytoprotective activity against H2O2-induced oxidative damage in rat PC12 cells assessed as late apoptotic cells at 10 uM preincubated for 24 hrs followed by annexin V-FITC/propidium iodide staining-based flow cytometric method (reference value: 10.7%). It is filed as functional.
Assay [5] has as its system PC-12. Description: Cytoprotective activity against H2O2-induced oxidative damage in rat PC12 cells assessed as early apoptotic cells at 2.5 uM preincubated for 24 hrs followed by H2O2 addition measured after 24 hrs by annexin V-FITC/propidium iodide staining-based flow cytometric method (reference value: 0.558%). It is filed as functional.
Assay [6] can be described thus: Antioxidant activity assessed as DPPH radical scavenging activity relative to edaravone. The format is functional. (In general: Loss of DPPH colour is used to gauge radical scavenging.)
The test system of assay [7] is PC-12. Description: Cytoprotective activity against H2O2-induced oxidative damage in rat PC12 cells assessed as increase in cell viability at 10 uM preincubated for 24 hrs followed by H2O2 addition measured after 24 hrs in presence of GCLC inhibitor BSO by MTT assay. It is filed as functional, cell-based. In general terms: Tetrazolium dyes change colour on reduction, which living cells bring about.

Assay [8] has as its system PC-12. The assay is described as follows: Cytoprotective activity against H2O2-induced oxidative damage in rat PC12 cells assessed as viable cells at 2.5 uM preincubated for 24 hrs followed by H2O2 addition measured after 24 hrs by annexin V-FITC/propidium iodide staining-based flow cytometric method (reference value: 85.2%). It is filed as functional. To be noted: read-out: Activity.

Assay [9] deals with PC-12. The assay is described as follows: Cytoprotective activity against H2O2-induced oxidative damage in rat PC12 cells assessed as late apoptotic cells at 5 uM preincubated for 24 hrs followed by H2O2 addition measured after 24 hrs by annexin V-FITC/propidium iodide staining-based flow cytometric method (reference value: 10.7%). The format is functional.
The subject of assay [10] is PC-12. The assay is described as follows: Cytoprotective activity against H2O2-induced oxidative damage in rat PC12 cells assessed as late apoptotic cells at 2.5 uM preincubated for 24 hrs followed by H2O2 addition measured after 24 hrs by annexin V-FITC/propidium iodide staining-based flow cytometric method (reference value: 10.7%). The format is functional.
The test system of assay [11] is PC-12. Description: Cytoprotective activity against H2O2-induced oxidative damage in rat PC12 cells assessed as necrotic cells at 2.5 uM preincubated for 24 hrs followed by H2O2 addition measured after 24 hrs by annexin V-FITC/propidium iodide staining-based flow cytometric method (reference value: 3.47%). The format is functional.
Assay [12] addresses T1, Nuclear factor erythroid 2-related factor 2 (Rattus norvegicus) (UniProt O54968).
T1 sequence (whole entry): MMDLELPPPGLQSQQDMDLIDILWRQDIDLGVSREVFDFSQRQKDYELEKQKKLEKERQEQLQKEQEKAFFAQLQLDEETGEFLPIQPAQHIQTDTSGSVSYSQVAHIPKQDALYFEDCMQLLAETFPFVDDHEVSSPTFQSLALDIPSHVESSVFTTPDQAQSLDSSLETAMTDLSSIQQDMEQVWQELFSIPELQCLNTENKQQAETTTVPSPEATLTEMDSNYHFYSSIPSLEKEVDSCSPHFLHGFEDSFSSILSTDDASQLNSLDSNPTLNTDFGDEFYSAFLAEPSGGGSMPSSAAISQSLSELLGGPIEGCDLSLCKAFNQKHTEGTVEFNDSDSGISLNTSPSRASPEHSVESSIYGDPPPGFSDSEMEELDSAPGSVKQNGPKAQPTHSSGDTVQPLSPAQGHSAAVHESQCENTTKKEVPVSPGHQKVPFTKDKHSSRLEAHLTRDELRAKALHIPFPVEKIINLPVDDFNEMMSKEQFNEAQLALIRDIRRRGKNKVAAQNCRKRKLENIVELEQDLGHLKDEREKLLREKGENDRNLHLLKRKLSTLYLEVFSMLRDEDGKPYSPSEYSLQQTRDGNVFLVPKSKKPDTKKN
The assay is described as follows: Induction of Nrf2 activity in rat PC12 cells assessed as upregulation of GCLC mRNA levels at 2.5 to 10 uM after 24 hrs by RT-PCR method. The format is cell-based.

Assay [13] has as its target T1, Nuclear factor erythroid 2-related factor 2 (Rattus norvegicus). Description: Induction of Nrf2 nuclear translocation in rat PC12 cells at 10 uM after 6 hrs by DAPI staining-based immunofluorescence method. The format is cell-based.
Assay [14] has as its system PC-12. Description: Cytoprotective activity against H2O2-induced oxidative damage in rat PC12 cells assessed as early apoptotic cells at 5 uM preincubated for 24 hrs followed by H2O2 addition measured after 24 hrs by annexin V-FITC/propidium iodide staining-based flow cytometric method (reference value: 0.558%). It is filed as functional.
For assay [15], the system named is PC-12. Description: Cytoprotective activity against H2O2-induced oxidative damage in rat PC12 cells preincubated for 24 hrs followed by H2O2 addition measured after 24 hrs by annexin V-FITC/propidium iodide staining-based flow cytometric method. It is filed as functional, cell-based.
In assay [16] the target is T1, Nuclear factor erythroid 2-related factor 2 (Rattus norvegicus). Description: Induction of Nrf2 activity in rat PC12 cells assessed as upregulation of GCLC levels after 24 hrs by Western blot method. The format is cell-based.
For assay [17], the system named is PC-12. The assay is described as follows: Cytoprotective activity against H2O2-induced oxidative damage in rat PC12 cells assessed as increase in cell viability preincubated for 24 hrs followed by H2O2 addition measured after 24 hrs by MTT assay. It is filed as functional, cell-based.
A short description of assay [18]: Antioxidant activity assessed as DPPH radical scavenging activity relative to tBHQ. The format is functional.
For assay [19], the system named is PC-12. Description: Cytoprotective activity against H2O2-induced oxidative damage in rat PC12 cells assessed as viable cells at 5 uM preincubated for 24 hrs followed by H2O2 addition measured after 24 hrs by annexin V-FITC/propidium iodide staining-based flow cytometric method (reference value: 85.2%). The note with it: read-out: Activity. The format is functional.

Assay [20] has as its system PC-12. The assay is described as follows: Cytoprotective activity against H2O2-induced oxidative damage in rat PC12 cells assessed as necrotic cells at 5 uM preincubated for 24 hrs followed by H2O2 addition measured after 24 hrs by annexin V-FITC/propidium iodide staining-based flow cytometric method (reference value: 3.47%). It is filed as functional.

Molecules are shown by their SMILES. Activity calls are given as the source filed them. The rule behind the calls is not given here.

For `CC(C)(C)c1cc(O)ccc1O` [E319], the Activity in assay [1] came to 1.1%; in [3] it was 0.882%; in assay [4], 0.882%. For the same compound, in assay [2], the viability at 10 µM was found to be 97.1%.
For the compound `CCC(=O)N1NC(c2cc(OC)c(OC)c(OC)c2)C2=C1CCC2` (stereo not drawn), the Activity amounted to 1.46% in assay [5]; 2.44% in assay [9]; 1.64% in [1]; 2.65% in assay [10]; 2.96% in [3]; 2.27% in assay [4]. The Activity in assay [11] was 1.69%; in [14], 2.64%; in [15], “Dose-dependent effect”; in [16], “Dose-dependent effect”; in assay [17], “Dose-dependent effect”; in [20], 1.46%. The fold change (FC) in assay [6] and in assay [18] was 0.5 throughout. The result in [7] was inactive. In addition, the viability at 2.5 µM in [8] worked out at 94.2%. Besides, the viability at 10 µM in assay [2] worked out at 93.1%. Moreover, the result in assay [12] and in assay [13] was Active. In addition, in assay [19], the viability at 5 µM was 93.5%.
For `CC1=NN(c2ccccc2)C(=O)C1` [EDARAVONE], the Activity in assay [1] came out at 1.17%; in assay [3], 1.85%; in assay [4], 1.92%. Further, the viability at 10 µM in assay [2] is 95.1%.

The values are drawn from ChEMBL document CHEMBL4004867, “Novel antioxidants' synthesis and their anti-oxidative activity through activating Nrf2 signaling pathway” (2017).
